Source: patent US20260345459A1, “SUBMICRON PARTICLE COMPRISING A PEPTIDE ACTIVE, PREPARATION METHOD AND USES THEREOF, IN PARTICULAR COSMETIC USES” (Sederma, priority 2023, published 2026)
Blank lines part the entries; values can stand above or below the compound they belong to. Residues, ends and D or L forms follow the SMILES beside them. No end group written: not given here. *: point of attachment. Palmitoyl = CCCCCCCCCCCCCCCC(=O)*; Lauroyl = CCCCCCCCCCCC(=O)*

Experiments:
[1] = Accelerated stability at 40 °C; type: physicochemical
Protocol: (§1) For these studies, encapsulated peptide formulations were stored in HDPE polyethylene bottles at the study temperature (room temperature and 40 °C). At each analysis time, a new 30 g bottle is opened for the first time. All the samples are handled under regular laboratory lighting and normal air conditions. No inert gas is used to fill the bottles or to handle the samples.
The study was performed at 40 °C. At this temperature, degradation is accelerated. There is a correlation with degradation at room temperature, 90 days at 40 °C being equivalent to 1 year at room temperature. This study thus constitutes a good indicator of the stability of the encapsulated peptide suspensions according to the invention.

[2] = Characterization of the obtained suspensions at T0 (macroscopic, pH, laser diffraction particle size, polydispersity, HPLC peptide content); type: physicochemical; conditions: different derivatization, peptide 100 ppm
Protocol: For each suspension, the presence or absence of heterogeneous aspects, phase separation or precipitation, and colour are visually assessed through a colourless transparent bottle without the use of any instruments. The viscosity is also estimated visually in comparison with water.
The pH was measured directly in the formulation (without dilution) using a calibrated potentiometer (pH 4.0 and 7.0).
Laser diffraction technique (Mastersizer 3000™, Malvern). The suspension is added directly to the water-containing wet dispersion unit until darkening in the 2-8% range. The refractive index used is 1.456, corresponding to the index of wax, i.e. cetyl palmitate. The results are expressed in D50 corresponding to particle diameters at the 50th percentile of the particle size distribution curve, representing the mean particle size.
A range of less than 2 is considered as a narrow distribution, describing particle size homogeneity.
This is quantified using an HPLC chromatography method, with a column, mobile phase and detection appropriate to each peptide active agent. An external calibration curve is produced.
Each suspension is treated by liquid/liquid extraction of a mixture composed of isopropanol, a pH 2-2.5 buffer and an organic solvent (acetonitrile or methanol) depending on the peptide to be dosed.
For Pal-KTTKS, Pal-GHK, Pal-GQPR and Pal-VGVAPG peptides, quantification is performed, for example, by HPLC at 35 °C using a Waters Symmetry™ C18 5 μm 4.6×150 mm HPLC column, a mobile phase consisting of an eluent of 99.8/0.1/0.1 v/v/v water/orthosphoric acid/triethylamine and acetonitrile. Detection is performed at 210 nm.
For the Pal-PP peptide, for example, analysis is performed at 40 °C using a Macherey Nagel™ EC 125/4 Nucleodur 100-5 C8 ec column, a mobile phase consisting of a 99.8/0.1/0.1 v/v/v water/orthosphoric acid/triethylamine and acetonitrile eluent. Detection is performed at 210 nm. […]

[3] = Stability at room temperature; type: physicochemical
Protocol: as §1
The following encapsulated peptides were monitored: Pal-KTTKS, Pal-GHK, Pal-GQPR, Pal-KTFK, Pal-KMO2K, Pal-VGVAPG and Pal-PP.

[4] = Trypsin digestion: proof of encapsulation and half-life; type: in vitro ADME; conditions: role: substrate; 0.003% trypsin, acetate buffer pH=5, 25 °C, peptide 100 ppm; read-out: T1/2 (loss of 50% of the initial content)
Protocol: The study was performed on a suspension of Pal-KTTKS encapsulated according to the invention, using trypsin, an enzyme that hydrolyses a peptide whose sequence contains the amino acid lysine. The peptide is placed in the presence of trypsin and the amount of peptide remaining, i.e. not hydrolysed by trypsin, is measured as a function of time. Only the peptide released from the capsule over time is susceptible to hydrolysis.
At T0, measurements make it possible to confirm that the peptide is encapsulated.
The kinetics will then make it possible to determine the half-life, which constitutes an indicator of the peptide's accessibility to the enzyme, and therefore an indicator of the peptide's protection by the capsule.
Two solutions are compared: one containing the encapsulated peptide (100 ppm) and the other the free (i.e. non-encapsulated) peptide, also at 100 ppm. Acetate buffer solution at pH=5 containing 0.003% trypsin is added. The samples are heated to 25 °C. The enzymatic reaction is stopped to perform the measurements by adding isopropyl alcohol. Peptide quantification is performed by HPLC using the method described in paragraph B 1-4 above.
Hydrolysis monitoring is performed under the chromatographic analysis conditions described in paragraph B 1-4 above.

[5] = different derivatization, peptide 100 ppm, 1 month at 40 °C
[6] = TA1 decyl glucoside, RT, 3 months

Compound: KTTKS [H-KTTKS]
Stability over time [1, 5]: Yes

Compound: CCCCCCCCCCCCCCCCOC(=O)[C@H](CCCNC(=N)N)NC(=O)[C@H](Cc1ccc(O)cc1)NC(C)=O [N-Acetyl-YR-O-hexadecyl ester, Acetyl-Tyr-Arg-hexadecyl ester]
D50 [2]: D50 (μm) = 0.234
Formation of a suspension of submicron particles [2]: Yes
pH [2]: pH 8.70
D50 [1, 5]: D50 (μm) = 0.237
Stability over time [1, 5]: Yes
pH [1, 5]: pH 8.70

Compound: CCCCCCCC(=O)N[C@H](C(=O)N[C@@H](Cc1c[nH]c2ccccc12)C(=O)O)[C@@H](C)CC [Octanoyl-IW]
Stability over time [1, 5]: Yes

Compound: CCCCCCCCCCCC(=O)N[C@@H](CCCCN)C(=O)N[C@H](C(=O)N[C@@H](CO)C(=O)N[C@@H](CCCCN)C(=O)N[C@@H](CO)C(=O)O)[C@@H](C)O [Lauroyl-KTSKS] (Lauroyl-KTSKS-OH)
Stability over time [1, 5]: Yes

Continued, values first:

Stability over time ([3]; 2.5% wax, RT, 6 months): Yes
Stability over time ([3]; 5% wax, RT, 6 months): Yes
Stability over time [3, 6]: Yes (3 months)
Stability over time ([3]; TA1 lauryl glucoside, RT, 12 months): Yes (12 months)
stability duration ([3]; room temperature, encapsulated): up to 1 year
half-life [4]: 1 h
Stability over time [1, 5]: Yes
Compound: CCCCCCCCCCCCCCCC(=O)N[C@@H](CCCCN)C(=O)N[C@H](C(=O)N[C@H](C(=O)N[C@@H](CCCCN)C(=O)N[C@@H](CO)C(=O)O)[C@@H](C)O)[C@@H](C)O [Pal-KTTKS] (Palmitoyl-KTTKS-OH)

Stability over time ([3]; 10% glycerol, 1 month): Yes
Stability over time ([3]; TA1 + TA2 (Lipoid P75-3), 3 months at RT): Yes
Stability over time [3, 6]: Yes (3 months)
Stability over time ([3]; TA1 lauryl glucoside, RT, 3 months): Yes (3 months)
Stability over time ([3]; TA1 only, without TA2, 3 months at RT): Yes
Stability over time ([3]; peptide content 100 ppm, RT, 1 month): Yes
Stability over time ([3]; peptide content 500 ppm, RT, 1 month): Yes
Stability over time ([3]; peptide content 1000 ppm, RT, 1 month): Yes
Stability over time ([3]; without glycerol, 1 month): Yes
Stability over time ([1]; TA1 + TA2 (Lipoid P75-3), 3 months at 40 °C): Yes
Stability over time ([1]; TA1 only, without TA2, 3 months at 40 °C): No: Phase
Compound: CCCCCCCCCCCCCCCC(=O)NCC(=O)N[C@@H](Cc1c[nH]cn1)C(=O)N[C@@H](CCCCN)C(=O)O [Pal-GHK] (Palmitoyl-Gly-His-Lys-OH)
